How the values were obtained:
[1] = test system: calcium-insensitive eNOS in HEK 293 cells; assay: NO radicals in medium of HEK 293 cells expressing calcium-insensitive eNOS (DCFH-DiOxyQ assay); assay type: cell-based, human; settings: TSA alone
Method: (§1) Nitric Oxide levels in HAEC were determined using DAF-DA as per manufacture instructions (Life Sciences). Briefly, cells were loaded with DAF-DA (5 μM) for 20 min and washed 3 times with PBS and incubated for another 30 min in phenol-free media. Fluorescence was determined using a Nikon TE-200 epifluorescence microscope. Images were captured with a Rolera EMC2 camera (Q-Imaging, BC, Canada) with Velocity software (PerkinElmer, Lexington, Mass.). NO production in the cell culture media was also determined by measuring Nitrite levels using a Siever's NO analyzer. NO radicals were measured in cell media collected after 24 hours of treatment using the Oxiselect assay (Cell Biolabs, San Diego, Calif.).
Next, the functional consequences of HDAC inhibition on downstream endothelial cell signaling were evaluated. Because eNOS-derived NO plays a central role in endothelial function, eNOS activity was assessed by measuring NO production using 3 different assays. […] HEK 293 cells lack native eNOS expression, but do produce abundant Arg2. Cell medium from 293 cells transfected with a control plasmid (LacZ) was used as a control background signal that was subtracted from all the groups containing calcium-insensitive endothelial nitric oxide synthase.

[2] = test system: aortic rings of wild-type mice; assay: Force tension (wire) myography, vascular relaxation of isolated wild-type mouse aortic rings; assay type: cell-based
Method: (§2) Mouse aorta was isolated and cleaned in ice-cold Krebs-Ringer-bicarbonate solution containing the following (in mM): 118.3 NaCl, 4.7 KCl, 1.6 CaCl2, 1.2 KH2 PO4, 25 NaHCO3, 1.2 MgSO4, and 11.1 dextrose. The aorta was immersed in a bath filled with constantly oxygenated Krebs buffer at 37° C. Equal size thoracic aortic rings (2 mm) were mounted using a microscope, ensuring no damage to the smooth muscle or endothelium. One end of the aortic rings was connected to a transducer, and the other to a micromanipulator. Aorta was passively stretched to an optimal resting tension using the micromanipulator, after which a dose of 60 mM KCl was administered, and repeated after a wash with Krebs buffer. After these washes, all vessels were allowed to equilibrate for 20-30 min in the presence of indomethacin (3 μM). Phenylephrine (1 μM) was administered to induce vasoconstriction. A dosedependent response (1 nM to 10 μM), with the muscarinic agonist, ACH or nitric oxide donor, SNP, was then performed as necessary. The responses were repeated in the presence of inhibitors. Relaxation responses were calculated as a percentage of tension following pre-constriction. Sigmoidal dose-response curves were fitted to data with the minimum constrained to 0. Two to four rings were isolated from each animal and the number of animals in each group (n) was 6.

NO production in HAECs = assay: Nitric oxide production in HAECs (DAF-DA fluorescence, Siever's NO analyzer); assay type: cell-based, human; settings: TSA 1 μmol/L
Method: as §1

SIRT = settings: cited from earlier work
eNOS = eNOS expression in HAECs (immunoblot); assay type: cell-based, human; settings: 1 μmol/L, 18 hours
Method: (§3) After 48 hrs of HAEC cells transfection, cells were lysed in ice cold RIPA lysis buffer consisting of 20 mM Tris-HCl at pH 7.5, 150 mM NaCl, 1 mM EDTA, 1 mM EGTA, 1% NP40, 1% sodium deoxycholate, 1 mM Na3VO4, 2.5 mM sodium pyrophosphate, 1 mM 3-glycerophosphate, 1 μg/mL leupeptin, and a 1:1000 diluted protease inhibitor cocktail (Sigma). For immunoprecipitation studies, whole cell lysate lysates were centrifuged at 14,000×g and supernatants were precleared by incubation with Protein A/G-agarose beads for 2 h at 4° C. with rocking. Agarose beads were then pelleted by centrifugation at 1,000×g. FLAG-Arg2 in precleared lysates were immunoprecipitated by incubation overnight at 4° C. with rocking following addition of anti-FLAG antibody (10 μl). Immune complexes were eluted in 2×SDS sample buffer by boiling for 5 minutes before loading into SDS-PAGE. Western blotting analysis was performed by transferring the SDS gel onto a PVDF membrane and visualized using secondary antibodies conjugated to alkaline phosphatases.

Arg2 = Arg2 protein expression in HAECs (Western blot); assay type: cell-based, human
Method: as §3

[3] = test system: aortic rings from Arg2−/− mice; assay: Force tension (wire) myography, vascular relaxation of aortic rings from Arg2-/- mice; assay type: cell-based, mouse; settings: Arg2−/− mice; TSA 200 nmol/L; n=6
Method: as §2

SMILES: CC(/C=C/C(=O)NO)=C\[C@@H](C)C(=O)c1ccc(N(C)C)cc1 [TSA, trichostatin A]
- NO production [1]: decreased
- SNP-mediated (endothelium-independent) vasorelaxation versus vehicle-only control ([2]; TSA 200 nmol/L or MGCD0103 1 μmol/L, 18 hours): no significant difference
- Emax acetylcholine-mediated (endothelium-dependent) vasorelaxation ([2]; TSA 200 nmol/L, 18 hours preincubation, n=6): 31.24±7.8%
- NO production (NO production in HAECs): significantly decreased
- block of SIRT (SIRT): do not block
- eNOS expression (eNOS): negligible effect
- Arg2 expression, broad-spectrum HDAC inhibitors (Arg2; 1 μmol/L, 18 hours): upregulated
- concentration of maximum effect on Arg2 protein (Arg2; 18 hours): 1 µmol/L
- Arg2 protein expression, dose dependence (Arg2; TSA 0, 0.1, 0.3, and 1 μmol/L, 18 hours): dose-dependent fashion
- Arg2 expression (Arg2; TSA 400 nmol/L, 18 hours): increased
- time at which increase in Arg2 protein expression is observed (Arg2; TSA 1 μmol/L): 8 h
- Emax endothelial cell-dependent vasorelaxation [3]: 66.3±7.54%
